pIC50: −log10 of the molar value. “Also recorded” adds a separate entry of the source.
Key:
[1] = tested on: VoLo human colon cancer cell line; assay: growth inhibition of human colon cancer cell line VoLo; assay type: cell-based; conditions: read-out: ED50, VoLo
antimitotic activity = conditions: among the Combretum caffrum constituents
[2] = tested on: L1210 lymphocytic leukemia cell line; assay: growth inhibition of murine L1210 lymphocytic leukemia cell line; assay type: cell-based
tubulin [3] = assay: inhibition of microtubule assembly / tubulin polymerization; assay type: biochemical
[4] = tested on: HCT-15 human colon cancer cell line; assay: growth inhibition of human colon cancer cell line HCT-15; assay type: cell-based; conditions: read-out: ED50, HCT-15
[5] = tested on: P388 lymphocytic leukemia cell line; assay: growth inhibition of murine P388 lymphocytic leukemia cell line (PS system); assay type: cell-based
tubulin [6] = assay: inhibition of colchicine binding to tubulin; conditions: competes with combretastatin A-1
[7] = tested on: DLD-1 human colon cancer cell line; assay: growth inhibition of human colon cancer cell line DLD-1; assay type: cell-based; conditions: read-out: ED50, DLD-1
tubulin [8] = conditions: previously isolated from Combretum caffrum; cited from earlier work

SMILES: COc1ccc(/C=C\c2cc(OC)c(OC)c(OC)c2)cc1O [Combretastatin A-4]
- antimitotic activity (in words) (antimitotic activity): strongest antimitotic agent
- activity against L1210 cell line (in words) [2]: significantly active
- IC50 ([2]; Mus musculus, L1210, read-out: ED50, growth of L1210 cell line): < 0.003 µg/mL
- activity against P388 cell line (in words) [5]: significantly active
- IC50 ([5]; Mus musculus, P388, read-out: ED50, growth of P388 cell line): < 0.003 µg/mL

SMILES: COc1ccc(/C=C\c2cc(OC)c3c(c2)OCO3)cc1O [combretastatin A-2]
- inhibition of microtubule assembly (in words), earlier isolated substances (tubulin [8]): potent inhibitors of microtubule assembly

SMILES: COc1ccc(/C=C\c2cc(OC)c(OC)c(OC)c2)c(O)c1O [combretastatin A-1]
- inhibition of microtubule assembly (in words), earlier isolated substances (tubulin [8]): potent inhibitors of microtubule assembly

SMILES: COc1ccc(/C=C/c2cc(OC)c(OC)c(OC)c2)cc1O [trans-isomer]
- activity against L1210 cell line (in words) [2]: significantly active
- activity against P388 cell line (in words) [5]: significantly active

Reference: patent US4996237A, “Combretastatin A-4” (Arizona Board of Regents, priority 1988, dated 1991)
